Data taken from the NIST ThermoML archive (doi:10.1021/acs.jced.8b00372).

Test: mn = molality of the nth substance listed, in mol/kg
Conditions: for electrical conductivity: 100 kPa, Liquid, Frequency=0.002 MHz, Alternating current cell with electrodes; for surface tension liquid-gas: Ring tensiometer

CCCCCCCCCCCCCCCC[n+]1ccn(C)c1.[Cl-] [1-hexadecyl-3-methylimidazolium chloride] + O
Conditions	electrical conductivity, 303.15 K [S/m]	electrical conductivity, 313.15 K [S/m]	electrical conductivity, 323.15 K [S/m]	surface tension liquid-gas, 313.15 K [mN/m]
m1 = 1.3e-05	–	–	–	57.9
m1 = 4.4e-05	–	–	–	56.4
m1 = 0.00011	0.00121	0.00152	0.00171	–
m1 = 0.000146	–	–	–	53.2
m1 = 0.00022	0.00234	0.00295	0.00334	–
m1 = 0.000247	–	–	–	50.1
m1 = 0.00033	0.00341	0.00432	0.00491	–
m1 = 0.00043	0.00444	0.0056	0.0064	–
m1 = 0.000435	–	–	–	46.4
m1 = 0.00052	0.00541	0.00686	0.00791	–
m1 = 0.00062	0.00636	0.00803	0.00929	–
m1 = 0.00071	0.00726	0.00918	0.0106	–
m1 = 0.000734	–	–	–	39.2
m1 = 0.00079	0.00809	0.0102	0.0119	–
m1 = 0.00088	0.0088	0.0112	0.0133	–
m1 = 0.00096	0.00933	0.0119	0.0143	–
m1 = 0.00104	0.00977	0.0125	0.0153	–
m1 = 0.00112	0.0102	0.0131	0.0161	–
m1 = 0.00119	0.0106	0.0136	0.0168	–
m1 = 0.00126	0.0109	0.0141	0.0175	–
m1 = 0.00127	–	–	–	38.8
m1 = 0.00133	0.0112	0.0145	0.0181	–
m1 = 0.00139	0.0115	0.0149	0.0186	–
m1 = 0.00146	0.0118	0.0154	0.0192	–
m1 = 0.00153	0.0121	0.0157	0.0197	–
m1 = 0.002558	–	–	–	38.8
m1 = 0.00525	–	–	–	38.1
